Laboratory results taken from patent US6660310B2, “Method to infuse fresh fruits and vegetables with an agent” (American Moxie LLC, priority 2000, dated 2003).
Peptide text beside a SMILES is read from it.

Experiments:
[1] = Taste test: taste or "heat" of materials infused with capsaicin; conditions: carrots, apples and squash infused with 2% capsaicin
Description: Carrots, apples and squash were infused with 2% capsaicin (the active constituent of cayenne pepper) with standard procedures, as described above, and the taste or “heat” of the infused materials was compared with untreated control materials.

[2] = Taste test: sweetness of materials infused with sweetening agents; conditions: apples, strawberries
Description: Apples, strawberries, carrots and celery were infused with either aspartame or saccharin with standard procedures, as described above, and sweetness was compared with untreated control. […] Clearly an optimal amount of sweetening agent would be lower. The taste test was repeated using a 0.2% concentration of each sweetening agent with the four biological materials.

[3] = extracts from Experiment 5; tested only in apple and strawberry
[4] = tested on: GabaA, Benzodiazepine (Central) Site; experiment: GabaA, Benzodiazepine (Central) Site Binding Assay; parameters: species or system Bovine
[5] = carrots and celery infused with standard procedures
[6] = carrots and celery, 0.2% concentration of sweetening agent

SMILES	sweetness compared with untreated control [2, 5]	sweetness compared with untreated control [2, 6]	further results
COc1cc(CNC(=O)CCCCC=CC(C)C)ccc1O [capsaicin, 8-methyl-N-vanillyl-6-nonenamide]	–	–	taste or "heat" compared with untreated control [1]: markedly and significantly “hotter”
O=C1NS(=O)(=O)c2ccccc21 [saccharin]	markedly and significantly sweeter	significantly enhanced over the untreated controls	–
COC(=O)[C@H](Cc1ccccc1)NC(=O)[C@@H](N)CC(=O)O [aspartame] (H-Asp-Phe-OMe)	markedly and significantly sweeter	significantly enhanced over the untreated controls	–
C[C@]1(O)CC[C@H]2[C@@H]3CCC4=CC(=O)CCC4=C3C=C[C@@]21C [Methyltrienolone, methyltrienolone]	–	–	specific binding of extract containing the infused agent [3]: demonstrated specific binding
CN1C(=O)CN=C(c2ccccc2F)c2cc([N+](=O)[O-])ccc21 [Flunitrazepam, flunitrazepam]	–	–	specific binding of extract containing the infused agent ([4]; extracts from Experiment 5, tested only in celery and tomato): demonstrated specific binding
CN1C(=O)CN=C(c2ccccc2F)c2cc([N+](=O)[O-])ccc21 [[^3H] Flunitrazepam]	–	–	Kd ([4]; assay characteristic of the radioligand, bovine cortical membranes, read-out: KD (binding affinity)): 1.4 nM
